The values that follow come from patent US8158792B2, “Spiropiperidines for use as tryptase inhibitors” (Janssen Pharmaceutica N.V., priority 2007, dated 2012).

A word on the IC50: it is the midpoint of a concentration-inhibition curve. A high value points to a need for much substance.

This test addresses human lung tryptase. Briefly: β-Tryptase In-Vitro Enzyme Assay. The format is biochemical. The note with it: human lung tryptase 1 nM, substrate H-D-HHT-Ala-Arg-pNa 500 μM, pH 7.4, room temperature. Here is the method:
The β-tryptase assay was conducted with human lung tryptase (Cortex Biochem #CP3033) in an aqueous buffer (10 mM Tris, 10 mM Hepes, 150 mM NaCl, 0.1% PEG 8000, pH 7.4) using the chromogenic substrate H-D-HHT-Ala-Arg-pNa. […] Percent inhibition was calculated by comparing the initial reaction velocity of samples without inhibitor to those with inhibitor. The initial reaction velocities were analyzed using Microsoft Excel.
`NCc1ccc2c(c1)C1(CCN(C(=O)c3ccc(C#Cc4ccccc4)o3)CC1)CN2S(=O)(=O)c1cccc(C(=O)O)c1` [Cpd 331, 1-(5-phenylethynyl-furan-2-yl)carbonyl-1′-(3-carboxy-phenyl)sulfonyl-5′-aminomethyl-spiro[piperidine-4,3′-(2H)-indole]] returned a 50% inhibitory concentration (IC50) of 0.041 µM.

Turning to `NCc1ccc2c(c1)C1(CCN(C(=O)c3ccc(Cl)c(Cl)c3)C(=O)C1)CO2` (centres unmarked) [Cpd 262, 1-(3,4-dichlorophenyl)carbonyl-2-oxo-5′-aminomethyl-spiro[piperidine-4,3′-(2H)-benzo[b]furan]], the midpoint of inhibition, the IC50, lay at 4.5 µM.

`NS(=O)(=O)NCc1ccc2c(c1)C1(CCN(C(=O)c3ccc(C#Cc4ccccc4)o3)CC1)CO2` [Cpd 305, 1-(5-phenylethynyl-furan-2-yl)carbonyl-5′-aminosulfonylaminomethyl-spiro[piperidine-4,3′-(2H)-benzo[b]furan]]: the concentration for half-maximal inhibition (IC50) was found to be 6.3 µM.

In the case of `Cc1ccc(-c2nc(C)c(C(=O)N3CCC4(CC3)COc3ccc(CN)cc34)s2)cc1` [Cpd 125, 1-[2-(4-methyl-phenyl)-4-methyl-thiazol-5-yl]carbonyl-5′-aminomethyl-spiro[piperidine-4,3′-(2H)-benzo[b]furan]], the midpoint of inhibition, the IC50, lay at 7.5 µM.

Regarding `NCc1ccc2c(c1)C1(CCN(C(=O)c3ccc(/C=C\c4ccccc4)o3)CC1)CO2` [Cpd 77, (Z)-1-(5-phenylethenyl-furan-2-yl)carbonyl-5′-aminomethyl-spiro[piperidine-4,3′-(2H)-benzo[b]furan]], the midpoint of inhibition, the IC50, lay at 0.1 µM.

`NCc1ccc2c(c1)C1(CCN(C(=O)/C=C/c3cccc(Cl)c3)CC1)CO2` [Cpd 164, (E)-1-(3-chloro-phenylethenyl)carbonyl-5′-aminomethyl-spiro[piperidine-4,3′-(2H)-benzo[b]furan]] yielded an IC50 of 0.14 µM.

The compound `NCc1ccc2c(c1)C1(CCN(C(=O)c3cccc4c3C(=O)c3ccccc3-4)CC1)CO2` [Cpd 270, 1-(9-oxo-fluoren-1-yl)carbonyl-5′-aminomethyl-spiro[piperidine-4,3′-(2H)-benzo[b]furan]] yielded an IC50 of 6.4 µM.

Consider `NCc1ccc2c(c1)C1(CCN(C(=O)c3ccc(COc4ccccc4Br)o3)CC1)CO2` [Cpd 213, 1-[5-(2-bromo-phenoxymethyl)-furan-2-yl]carbonyl-5′-aminomethyl-spiro[piperidine-4,3′-(2H)-benzo[b]furan]], for which half-maximal inhibition (IC50) was put at 0.24 µM.

The compound `NCc1ccc2c(c1)C1(CCN(C(=O)c3ccc(Cl)c(Cl)c3)CC1)C(=O)N2` [Cpd 315, 1-(3,4-dichlorophenyl)carbonyl-2′-oxo-5′-aminomethyl-spiro[piperidine-4,3′-(2H)-indole]] registered an IC50 of 0.48 µM.

As to `NCc1ccc2c(c1)C1(CCN(C(=O)c3ccc(C#Cc4ccccc4)o3)CC1)CN2CCP(=O)(O)O` [Cpd 326, 1-(5-phenylethynyl-furan-2-yl)carbonyl-5′-aminomethyl-spiro[piperidine-4,3′-(2H)-indole]-1′-(2-ethyl-phosphonic acid)], the midpoint of inhibition, the IC50, lay at 0.47 µM.

Compound `NCc1ccc2c(c1)C1(CCN(C(=O)c3ccc(-c4ccc(Br)cc4)o3)CC1)CO2` [Cpd 140, 1-[5-(4-bromo-phenyl)-furan-2-yl]carbonyl-5′-aminomethyl-spiro[piperidine-4,3′-(2H)-benzo[b]furan]] displayed an IC50 of 0.04 µM.

Compound `Cc1ccc(C#Cc2ccc(C(=O)N3CCC4(CC3)COc3ccc(CN)cc34)o2)cc1` [Cpd 170, 1-[5-(4-methyl-phenylethynyl)-furan-2-yl]carbonyl-5′-aminomethyl-spiro[piperidine-4,3′-(2H)-benzo[b]furan]] displayed an IC50 of 0.0083 µM.

Turning to `NCc1ccc2c(c1)C1(CCN(C(=O)C3CCCCC3)CC1)CO2` [Cpd 37, 1-cyclohexylcarbonyl-5′-aminomethyl-spiro[piperidine-4,3′-(2H)-benzo[b]furan]], it took 0.73 µM to reach half-maximal inhibition (IC50).

`CSc1sc(C(=O)N2CCC3(CC2)COc2ccc(CN)cc23)cc1C#N` [Cpd 258, 1-(4-cyano-5-methylthio-thien-2-yl)carbonyl-5′-aminomethyl-spiro[piperidine-4,3′-(2H)-benzo[b]furan]] registered an IC50 of 0.028 µM.

The compound `NCc1ccc2c(c1)C1(CCN(C(=O)[C@@H]3C[C@H]3c3ccccc3)CC1)CO2` (relative stereo) [Cpd 141, 1-(trans-2-phenyl-cyclopropyl)carbonyl-5′-aminomethyl-spiro[piperidine-4,3′-(2H)-benzo[b]furan]] came in with an IC50 of 0.48 µM.

The compound `NCc1ccc2c(c1)C1(CCN(C(=O)c3ccc(NC(=O)Cn4cnc5ccccc54)cc3)CC1)CO2` [Cpd 9, 1-(4-benzoimidazol-1-ylmethylcarbonylamino-phenyl)carbonyl-5′-aminomethyl-spiro[piperidine-4,3′-(2H)-benzo[b]furan]] displayed an IC50 of 3.3 µM.

In turn, `Cc1ccc(C)c(C#Cc2ccc(C(=O)N3CCC4(CC3)COc3ccc(CN)cc34)o2)c1` [Cpd 172, 1-[5-(2,5-dimethyl-phenylethynyl)-furan-2-yl]carbonyl-5′-aminomethyl-spiro[piperidine-4,3′-(2H)-benzo[b]furan]] gave an IC50 of 0.0072 µM.

Take `NCc1ccc2c(c1)C1(CCN(C(=O)c3ccc4c(c3)C(=O)c3ccccc3-4)CC1)CO2` [Cpd 8, 1-(9-oxo-fluoren-2-yl)carbonyl-5′-aminomethyl-spiro[piperidine-4,3′-(2H)-benzo[b]furan]]: half-maximal inhibition (IC50) required 3.4 µM.

`NCc1ccc2c(c1)C1(CCN(C(=O)c3ccc4c(c3)OCO4)CC1)CO2` [Cpd 68, 1-benzodioxol-5-ylcarbonyl-5′-aminomethyl-spiro[piperidine-4,3′-(2H)-benzo[b]furan]] gave an IC50 of 0.19 µM.

Take `NCc1ccc2c(c1)C1(CCN(C(=O)c3sc4ccccc4c3Cl)CC1)CO2` [Cpd 166, 1-(3-chloro-benzo[b]thien-2-yl)carbonyl-5′-aminomethyl-spiro[piperidine-4,3′-(2H)-benzo[b]furan]]: the IC50 stood at 0.071 µM.

Compound `CC(C)(C)c1cc(C(=O)N2CCC3(CC2)COc2ccc(CN)cc23)cc(C(C)(C)C)c1` [Cpd 133, 1-(3,5-di-tert-butyl-phenyl)carbonyl-5′-aminomethyl-spiro[piperidine-4,3′-(2H)-benzo[b]furan]] came in with an IC50 of 0.081 µM.

Consider `NCc1ccc2c(c1)C1(CCN(C(=O)/C=C/c3ccc(OCc4ccccc4)cc3)CC1)CO2` [Cpd 300, (E)-1-(4-benzyloxy-phenylethenyl)carbonyl-5′-aminomethyl-spiro[piperidine-4,3′-(2H)-benzo[b]furan]], for which it took 1.5 µM to reach half-maximal inhibition (IC50).

Regarding `CCN1CC2(CCN(C(=O)c3ccc(C#Cc4ccccc4)o3)CC2)c2cc(CN)ccc21` [Cpd 320, 1-(5-phenylethynyl-furan-2-yl)carbonyl-1′-ethyl-5′-aminomethyl-spiro[piperidine-4,3′-(2H)-indole]], the IC50 came out at 0.28 µM.

`Cc1ccccc1/C=C/C(=O)N1CCC2(CC1)COc1ccc(CN)cc12` [Cpd 191, (E)-1-(2-methyl-phenylethenyl)carbonyl-5′-aminomethyl-spiro[piperidine-4,3′-(2H)-benzo[b]furan]] showed a half-maximal inhibitory concentration (IC50) of 0.25 µM.

`CSc1cccc(CC(=O)N2CCC3(CC2)COc2ccc(CN)cc23)c1` [Cpd 103, 1-(3-methylthio-benzyl)carbonyl-5′-aminomethyl-spiro[piperidine-4,3′-(2H)-benzo[b]furan]] had an IC50 of 0.96 µM.

For `NCc1ccc2c(c1)C1(CCN(C(=O)c3sc(Cl)c(Cl)c3Cl)CC1)CO2` [Cpd 275, 1-(3,4,5-trichloro-thien-2-yl)carbonyl-5′-aminomethyl-spiro[piperidine-4,3′-(2H)-benzo[b]furan]], the IC50 was determined as 0.022 µM.

Compound `Cc1ccccc1Oc1cccc(CC(=O)N2CCC3(CC2)COc2ccc(CN)cc23)c1` [Cpd 208, 1-[3-(2-methyl-phenoxy)-benzyl]carbonyl-5′-aminomethyl-spiro[piperidine-4,3′-(2H)-benzo[b]furan]] showed an IC50 of 0.012 µM.

In turn, `COC(=O)CCN1CC2(CCN(C(=O)c3ccc(C#Cc4ccccc4)o3)CC2)c2cc(CN)ccc21` [Cpd 321, 1-(5-phenylethynyl-furan-2-yl)carbonyl-1′-(2-methoxycarbonyl-ethyl)-5′-aminomethyl-spiro[piperidine-4,3′-(2H)-indole]] registered an IC50 of 0.16 µM.

Take `NCc1ccc2c(c1)C1(CCN(C(=O)Cc3cccc(Oc4ccccc4)c3)CC1)CO2` [Cpd 88, 1-(3-phenoxy-benzyl)carbonyl-5′-aminomethyl-spiro[piperidine-4,3′-(2H)-benzo[b]furan]]: the IC50 was determined as 0.026 µM.

The compound `NCc1ccc2c(c1)C1(CCN(C(=O)CCc3ccccc3)CC1)CO2` [Cpd 79, 1-phenethylcarbonyl-5′-aminomethyl-spiro[piperidine-4,3′-(2H)-benzo[b]furan]] returned an IC50 of 1.4 µM.

On to `NCc1ccc2c(c1)C1(CCN(C(=O)c3cccs3)CC1)CO2` [Cpd 159, 1-thien-2-ylcarbonyl-5′-aminomethyl-spiro[piperidine-4,3′-(2H)-benzo[b]furan]], for which half-maximal inhibition (IC50) was put at 0.21 µM.

With `NCc1ccc2c(c1)C1(CCN(C(=O)c3ccc(Br)cc3)CC1)CO2` [Cpd 59, 1-(4-bromo-phenyl)carbonyl-5′-aminomethyl-spiro[piperidine-4,3′-(2H)-benzo[b]furan]], the IC50 worked out at 0.36 µM.

As for `COc1ccc(C(=O)N2CCC3(CC2)COc2ccc(CN)cc23)cc1` [Cpd 54, 1-(4-methoxy-phenyl)carbonyl-5′-aminomethyl-spiro[piperidine-4,3′-(2H)-benzo[b]furan]], half-maximal inhibition (IC50) required 0.75 µM.

Turning to `NCc1ccc2c(c1)C1(CCN(C(=O)c3ccc(COc4cccc(Cl)c4)o3)CC1)CO2` [Cpd 134, 1-[5-(3-chloro-phenoxymethyl)-furan-2-yl]carbonyl-5′-aminomethyl-spiro[piperidine-4,3′-(2H)-benzo[b]furan]], half-maximal inhibition (IC50) required 0.076 µM.

For `NCc1ccc2c(c1)C1(CCN(C(=O)c3sc(SCc4ccccc4)c4c3CCC=C4)CC1)CO2` [Cpd 241, 1-(3-benzylthio-7-hydro-6H-benzo[c]thien-1-yl)carbonyl-5′-aminomethyl-spiro[piperidine-4,3′-(2H)-benzo[b]furan]], the IC50 stood at 0.0051 µM.
